Data published in US20260337208A1, “HETEROCYCLIC DERIVATIVES AS JANUS KINASE INHIBITORS” (CHIESI FARMACEUTICI S.P.A., priority 2022, published 2026).

Columns and labels:
[1] = test system: mouse model of chronic exposure to AAH allergens; conditions: cited from earlier work
[2] = test system: OVA-challenged mice; conditions: given as dry powder; cited from earlier work
[3] = bleomycin-induced fibrosis mouse model; cited from earlier work
[4] = cited from earlier work; for admission rate of the intensive care unit / incidence of acute respiratory distress syndrome (ARDS) / risk of mortality / use of invasive mechanical ventilation: COVID-19
[5] = RA patients, including a subgroup with interstitial lung disease; cited from earlier work
[6] = in vivo; cited from earlier work
[7] = test system: house dust mite mouse model of asthma; conditions: formulated for being administered as aerosol; cited from earlier work
[8] = in combination with nintedanib; case report; cited from earlier work
[9] = target: JAK1 (Homo sapiens, UniProt P23458); test: Biochemical potency on JAK1, TR-FRET (LANCE Ultra kinase assay); conditions: ATP corresponding to Km; cell-free; read-out: JAK1 inhibitory activity (pIC50) (converted)
In short: (§1)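 ULight-JAK-1 (Tyr1023) peptide phosphorylation at Km ATP, 1.5 h r.t.; substrate solution held peptide 30/50/20/10 nM and ATP 20/0.7/0.2/12 μM, enzyme solution 0.15/0.083/0.025/0.144 ng/μL (JAK1/JAK2/JAK3/TYK2). EDTA stop, Eu-PT66 antibody TR-FRET read at 665 nm; 11-point 5-fold dilutions from 20 μM; IC50 by variable-slope fit.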

[10] = target: TYK2 (Homo sapiens, UniProt P29597); test: Biochemical potency on Tyk2, TR-FRET (LANCE Ultra kinase assay); conditions: ATP corresponding to Km; cell-free; read-out: TYK2 inhibitory activity (pIC50) (converted)
In short: as §1

[11] = target: JAK2 (Homo sapiens, UniProt O60674); test: Biochemical potency on JAK2, TR-FRET (LANCE Ultra kinase assay); conditions: ATP corresponding to Km; cell-free; read-out: JAK2 inhibitory activity (pIC50) (converted)
In short: as §1

[12] = test system: pSTAT6 in BEAS-2B human cell line; test: Inhibition of IL-13 induced pSTAT6 in BEAS; type: cell-based; conditions: for IC50: Homo sapiens, BEAS-2B, 0.5 h, IL-13 trigger, 30 min, parent compound; for Fold difference parent vs predicted acid metabolite: ratio=IC50 predicted acid metabolite/IC50 ester
In short: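 BEAS-2B cells grown 48 h, pre-treated 30 min with compound, then stimulated 30 min with IL-13. Lysate pSTAT6 (Tyr641) measured by sandwich ELISA. Eleven 5-fold dilutions from 10 μM, in duplicate, fitted to IC50.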

[13] = target: T1, JAK3 (Homo sapiens, UniProt P52333); test: Biochemical potency on JAK3, TR-FRET (LANCE Ultra kinase assay); conditions: ATP corresponding to Km; cell-free; read-out: JAK3 inhibitory activity (pIC50) (converted)
T1 sequence (P52333 1-1124): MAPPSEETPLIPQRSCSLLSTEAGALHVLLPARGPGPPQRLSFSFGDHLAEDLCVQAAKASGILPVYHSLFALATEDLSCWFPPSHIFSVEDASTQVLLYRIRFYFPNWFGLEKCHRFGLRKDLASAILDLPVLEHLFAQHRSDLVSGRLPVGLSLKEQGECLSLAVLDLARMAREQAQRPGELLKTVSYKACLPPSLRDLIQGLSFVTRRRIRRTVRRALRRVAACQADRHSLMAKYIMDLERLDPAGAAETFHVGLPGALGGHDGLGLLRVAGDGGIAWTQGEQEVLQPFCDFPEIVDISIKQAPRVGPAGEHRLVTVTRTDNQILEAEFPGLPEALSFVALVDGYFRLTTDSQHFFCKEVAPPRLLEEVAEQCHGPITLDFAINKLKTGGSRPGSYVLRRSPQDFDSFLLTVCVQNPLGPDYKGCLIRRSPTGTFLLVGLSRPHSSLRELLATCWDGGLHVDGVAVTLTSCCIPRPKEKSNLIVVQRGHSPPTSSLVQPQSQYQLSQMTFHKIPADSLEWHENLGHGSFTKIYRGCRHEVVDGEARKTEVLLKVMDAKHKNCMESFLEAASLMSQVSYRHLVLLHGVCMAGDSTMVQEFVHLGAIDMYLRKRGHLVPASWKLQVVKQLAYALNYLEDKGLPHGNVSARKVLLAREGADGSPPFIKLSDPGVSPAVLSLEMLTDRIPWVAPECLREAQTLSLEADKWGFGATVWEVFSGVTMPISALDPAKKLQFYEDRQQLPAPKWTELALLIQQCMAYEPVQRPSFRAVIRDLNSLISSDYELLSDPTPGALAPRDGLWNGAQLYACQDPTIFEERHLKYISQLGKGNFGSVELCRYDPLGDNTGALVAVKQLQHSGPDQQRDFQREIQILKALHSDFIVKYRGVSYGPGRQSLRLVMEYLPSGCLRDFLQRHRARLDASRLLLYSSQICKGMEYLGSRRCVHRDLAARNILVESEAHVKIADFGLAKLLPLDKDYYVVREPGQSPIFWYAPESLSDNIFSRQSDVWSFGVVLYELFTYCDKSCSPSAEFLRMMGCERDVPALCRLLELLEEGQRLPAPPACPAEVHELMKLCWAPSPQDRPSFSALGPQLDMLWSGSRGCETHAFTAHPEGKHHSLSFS
In short: as §1

TYK2, sequence (P29597 whole entry): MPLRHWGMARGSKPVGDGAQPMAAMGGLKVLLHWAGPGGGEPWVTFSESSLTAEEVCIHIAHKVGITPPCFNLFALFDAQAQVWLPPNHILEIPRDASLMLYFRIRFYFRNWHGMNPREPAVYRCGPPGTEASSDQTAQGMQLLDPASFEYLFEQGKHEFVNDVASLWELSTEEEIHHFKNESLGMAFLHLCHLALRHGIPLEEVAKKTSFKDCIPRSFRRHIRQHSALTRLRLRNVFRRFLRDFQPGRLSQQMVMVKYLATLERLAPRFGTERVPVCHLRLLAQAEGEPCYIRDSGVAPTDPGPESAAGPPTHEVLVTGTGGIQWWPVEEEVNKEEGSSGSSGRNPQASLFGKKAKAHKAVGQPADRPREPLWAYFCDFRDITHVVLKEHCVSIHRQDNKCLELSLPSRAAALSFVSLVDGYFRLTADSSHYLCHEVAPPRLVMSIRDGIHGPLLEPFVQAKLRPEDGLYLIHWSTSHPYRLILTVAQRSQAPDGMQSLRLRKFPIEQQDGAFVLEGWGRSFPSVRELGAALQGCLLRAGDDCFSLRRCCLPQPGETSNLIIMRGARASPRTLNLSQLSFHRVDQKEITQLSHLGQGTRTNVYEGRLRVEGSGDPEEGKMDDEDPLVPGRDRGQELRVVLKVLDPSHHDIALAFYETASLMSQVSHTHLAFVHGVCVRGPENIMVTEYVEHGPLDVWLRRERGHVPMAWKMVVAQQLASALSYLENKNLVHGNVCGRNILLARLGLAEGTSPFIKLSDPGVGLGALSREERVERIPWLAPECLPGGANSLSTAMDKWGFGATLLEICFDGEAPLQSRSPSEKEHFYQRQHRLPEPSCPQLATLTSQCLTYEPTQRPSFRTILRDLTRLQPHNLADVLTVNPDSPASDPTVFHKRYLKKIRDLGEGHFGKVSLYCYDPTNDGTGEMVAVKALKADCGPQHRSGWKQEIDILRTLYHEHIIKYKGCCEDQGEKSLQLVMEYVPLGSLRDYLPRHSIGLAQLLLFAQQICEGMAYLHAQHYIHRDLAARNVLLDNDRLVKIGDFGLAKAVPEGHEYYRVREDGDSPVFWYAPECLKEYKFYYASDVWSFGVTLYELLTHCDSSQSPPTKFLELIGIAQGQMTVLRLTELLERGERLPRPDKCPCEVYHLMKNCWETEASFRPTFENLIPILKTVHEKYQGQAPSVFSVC
JAK2, sequence (O60674 whole entry): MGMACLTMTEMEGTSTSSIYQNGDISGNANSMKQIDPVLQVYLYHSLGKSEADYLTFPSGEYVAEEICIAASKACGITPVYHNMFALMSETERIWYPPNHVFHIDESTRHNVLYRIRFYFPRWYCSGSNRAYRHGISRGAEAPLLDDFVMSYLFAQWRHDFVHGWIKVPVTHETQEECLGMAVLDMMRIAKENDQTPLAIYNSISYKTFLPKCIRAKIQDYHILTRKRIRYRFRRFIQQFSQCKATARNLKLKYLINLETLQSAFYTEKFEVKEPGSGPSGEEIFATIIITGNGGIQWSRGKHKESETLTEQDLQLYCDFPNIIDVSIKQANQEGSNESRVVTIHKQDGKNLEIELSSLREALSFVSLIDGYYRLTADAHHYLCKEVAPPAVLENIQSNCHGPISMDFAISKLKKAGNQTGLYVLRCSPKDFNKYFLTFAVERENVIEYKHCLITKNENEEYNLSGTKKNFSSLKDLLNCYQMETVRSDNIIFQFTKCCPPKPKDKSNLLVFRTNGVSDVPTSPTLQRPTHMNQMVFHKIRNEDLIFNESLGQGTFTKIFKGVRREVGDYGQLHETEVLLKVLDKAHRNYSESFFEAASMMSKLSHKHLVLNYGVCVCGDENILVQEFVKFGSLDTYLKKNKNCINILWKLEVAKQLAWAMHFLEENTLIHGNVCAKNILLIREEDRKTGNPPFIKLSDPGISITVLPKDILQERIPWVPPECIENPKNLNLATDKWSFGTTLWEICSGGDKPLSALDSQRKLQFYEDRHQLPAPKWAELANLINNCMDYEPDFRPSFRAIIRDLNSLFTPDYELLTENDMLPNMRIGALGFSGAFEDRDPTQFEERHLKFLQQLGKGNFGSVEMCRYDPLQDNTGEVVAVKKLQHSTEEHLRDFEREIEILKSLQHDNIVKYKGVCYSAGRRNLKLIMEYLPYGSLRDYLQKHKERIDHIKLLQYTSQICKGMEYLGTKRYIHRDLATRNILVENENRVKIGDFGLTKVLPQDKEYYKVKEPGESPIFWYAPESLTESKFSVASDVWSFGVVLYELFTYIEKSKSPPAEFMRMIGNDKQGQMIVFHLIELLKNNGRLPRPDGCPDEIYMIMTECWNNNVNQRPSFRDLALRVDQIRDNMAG
JAK1, sequence (P23458 whole entry): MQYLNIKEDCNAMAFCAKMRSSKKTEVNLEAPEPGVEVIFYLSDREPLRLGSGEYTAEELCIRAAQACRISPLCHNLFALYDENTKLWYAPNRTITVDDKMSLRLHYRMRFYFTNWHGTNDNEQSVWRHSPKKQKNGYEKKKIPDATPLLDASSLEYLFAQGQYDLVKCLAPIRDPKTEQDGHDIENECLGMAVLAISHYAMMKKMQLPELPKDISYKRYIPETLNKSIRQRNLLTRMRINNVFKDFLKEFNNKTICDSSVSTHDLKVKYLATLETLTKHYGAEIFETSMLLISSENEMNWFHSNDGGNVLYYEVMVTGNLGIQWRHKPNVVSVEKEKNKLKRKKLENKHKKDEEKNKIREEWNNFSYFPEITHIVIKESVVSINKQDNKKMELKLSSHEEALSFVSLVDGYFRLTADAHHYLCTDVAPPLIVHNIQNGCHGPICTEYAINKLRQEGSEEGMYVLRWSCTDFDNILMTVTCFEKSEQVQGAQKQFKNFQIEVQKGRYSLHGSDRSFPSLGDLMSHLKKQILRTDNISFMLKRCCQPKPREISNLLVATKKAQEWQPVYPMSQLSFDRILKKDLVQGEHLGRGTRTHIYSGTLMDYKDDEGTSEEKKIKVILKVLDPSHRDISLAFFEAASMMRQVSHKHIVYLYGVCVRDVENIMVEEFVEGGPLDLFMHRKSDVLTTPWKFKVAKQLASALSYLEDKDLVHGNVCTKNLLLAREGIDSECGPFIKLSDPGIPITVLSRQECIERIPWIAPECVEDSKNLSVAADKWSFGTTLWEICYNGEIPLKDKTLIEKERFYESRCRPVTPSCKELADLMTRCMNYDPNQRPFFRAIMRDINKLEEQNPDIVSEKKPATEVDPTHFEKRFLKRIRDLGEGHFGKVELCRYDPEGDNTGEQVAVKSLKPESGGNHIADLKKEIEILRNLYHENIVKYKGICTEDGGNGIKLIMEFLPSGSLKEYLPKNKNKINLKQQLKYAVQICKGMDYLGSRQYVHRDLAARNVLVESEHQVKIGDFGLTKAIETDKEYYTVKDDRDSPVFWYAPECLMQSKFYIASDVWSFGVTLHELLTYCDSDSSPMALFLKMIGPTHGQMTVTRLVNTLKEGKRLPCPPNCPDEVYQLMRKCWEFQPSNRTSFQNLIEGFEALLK

Row | SMILES | admission rate of the intensive care unit [4] | incidence of acute respiratory distress syndrome (ARDS) [4] | risk of mortality [4] | use of invasive mechanical ventilation [4] | IC50 [9] [nM] | IC50 [10] [nM] | IC50 [11] [nM] | IC50 [12] [nM] | Fold difference parent vs predicted acid metabolite [12] | IC50 [13] [nM] | further results
1 | CN(CCC#N)C1CCN(C(=O)Cn2cc(NC(=O)c3cnn4cccnc34)c(-c3cc(Cl)ccc3OC(F)F)n2)CC1 [iJak-381] |  |  |  |  |  |  |  |  |  |  | BAL eosinophilia [1]: reduced; CCL11 [1]: reduced; CXCL1 [1]: reduced; neutrophilia [1]: reduced; BAL eosinophilia [2]: reduced; CCL11 [2]: reduced; Muc5AC [2]: reduced; airway resistance [2]: reduced
2 | N#CC[C@H](C1CCCC1)n1cc(-c2ncnc3[nH]ccc23)cn1 [Ruxolitinib, ruxolitinib] | borderline impact | borderline impact | reduced risk of mortality | reduced the use of invasive mechanical ventilation |  |  |  |  |  |  | fibrotic lesions in lung [3]: ameliorated the fibrotic lesions in lung; levels of fibrotic molecular markers [3]: reduced levels of fibrotic molecular markers; clinical symptoms and chest computed tomography images ([4]; COVID-19 patients): improved the clinical symptoms and chest computed tomography images
3 | CCS(=O)(=O)N1CC(CC#N)(n2cc(-c3ncnc4[nH]ccc34)cn2)C1 [Baricitinib, baricitinib] | borderline impact | borderline impact | reduced risk of mortality | reduced the use of invasive mechanical ventilation |  |  |  |  |  |  | biomarkers' levels of lung fibrosis and inflammation [5]: reduces the biomarkers' levels of lung fibrosis and inflammation; safety as immune modulator [5]: safe immune modulator
4 | C[C@@H]1CCN(C(=O)CC#N)C[C@@H]1N(C)c1ncnc2[nH]ccc12 [tofacitinib] |  |  |  |  |  |  |  |  |  |  | preventive effect in experimental dermal and pulmonary fibrosis [6]: acted as a preventive agent; eosinophils count [7]: reduced eosinophils count; efficacy and safety in aggressive interstitial lung disease [8]: corroborated the efficacy and safety
5 | COc1cc2c(cc1-n1nc(C(=O)NCCN3CCC(C(=O)O[C@H]4CN(C)C[C@@H]4F)CC3)c3cnc(-c4cnn5cccnc45)cc31)OCCN2 [Example 50, (3S,4S)-4-fluoro-1-methylpyrrolidin-3-yl 1-(2-(1-(6-methoxy-3,4-dihydro-2H-benzo[b][1,4]oxazin-7-yl)-6-(pyrazolo[1,5-a]pyrimidin-3-yl)-1H-pyrazolo[4,3-c]pyridine-3-carboxamido)ethyl)piperidine-4-carboxylate] |  |  |  |  | ≤ 5.01 | 5.01 to 50.1 | ≤ 5.01 | ≤ 5.01 | kkkk (ratio≥200) | ≤ 5.01 | 
6 | COc1cc2c(cc1-n1nc(C(=O)NCCN3CCC(C(=O)OCC(C)(C)CO)CC3)c3cnc(-c4cnn5cccnc45)cc31)OCCN2 [Example 15, 3-hydroxy-2,2-dimethylpropyl 1-(2-(1-(6-methoxy-3,4-dihydro-2H-benzo[b][1,4]oxazin-7-yl)-6-(pyrazolo[1,5-a]pyrimidin-3-yl)-1H-pyrazolo[4,3-c]pyridine-3-carboxamido)ethyl)piperidine-4-carboxylate] |  |  |  |  | ≤ 5.01 | 5.01 to 50.1 | ≤ 5.01 | ≤ 5.01 | kkkk (ratio≥200) | ≤ 5.01 | 
